Assay results taken from US8435998B2, “Crystalline form of posaconazole” (Sandoz AG, priority 2008, dated 2013).
In brackets after ≈: the same amount, converted by molar mass. Several values for one entry are separate records, joined by “and”; a condition that tells them apart may be missing. Equal values may be shown once. One block for each compound: values may come before it.

Legend:
[1] = Specific surface area, BET method with nitrogen (NOVA 2000); format: physicochemical; details: for Specific Surface Area: BET, nitrogen, 77° K
Source text: The specific surface area of crystalline form IV of posaconazole as such, i.e. as obtained according to the herein described methods, is typically about 10-25 m^2/g±0.5 m^2/g, e.g. about 13-20 m^2/g±0.5 m^2/g, such as about 15-17 m^2/g±0.5 m^2/g, as measured according to the known Multi-Point-BET-method as herein described and as shown in Example 7. This specific surface area of crystalline form IV of posaconazole is about 10-fold larger when compared to that of known crystalline form I. It is known that the specific surface area between a solid and a liquid phase has a direct impact on the dissolution rate and thus on the bioavailability of the pharmaceutical ingredient as described e.g. by the equation by Nernst and Brunner as found in W. Nernst, Z. Phys. Chem. 47 (1904), pp. 52-55. […] Thus, crystalline form IV of posaconazole may advantageously be used as such, i.e. without being micronized, for preparing a pharmaceutical composition, e.g. a liquid suspension or dispersion as herein described—in contrast to known posaconazole forms which are micronized for use in such suspensions as e.g. described in WO 02/80678.
Specific surface area measurement was performed with the equipment NOVA 2000 as commercially available from Quantachrome Instruments using the BET method and Nitrogen as the absorbed gas at 77° K (i.e. −196.15° C.) as described e.g. by Medema J, Campagne A.: A Simple Method to Determine Cumulative Surface-Area Distributions of Porous Solids; Journal of Catalysis, Volume 8, Issue 2, pp. 120, 1967. Crystalline form IV of posaconazole was prepared according to Example 4. Crystalline form I was prepared by the method of example 3 described in U.S. Pat. No. 6,958,337.

[2] = Median particle size by laser diffraction (Malvern Mastersizer 2000S) in oral suspension; format: physicochemical; details: for Median particle size (d (0.5)-value): in suspension, laser diffraction after 5 min ultrasonic treatment
Source text: The median particle size of crystalline form IV of posaconazole when used as such, i.e. in a non-micronized form for preparing a pharmaceutical composition in the form of a liquid suspension or dispersion as herein described, has been determined in samples taken from such suspension. Said median particle size is typically about 0.1-0.2 μm±0.05 μm, e.g. 0.14-0.17 μm, such as 0.15 μm, when measured with known laser diffraction methods, e.g. determination of the particle size distribution (Malvern) according to the US-Pharmacopeia (USP) 32 (2009) method <429> and to the European Pharmacopeia (EP) 6 (2008) method 2.9.31. based on the diffraction of laser by particles within the measurement volume (for details see Example 8). In the present invention, the term median particle size is understood to mean the d(0.5) value as determined according to the herein described laser diffraction methods.
Crystalline form IV as obtained by Example 4 was used to prepare 25 ml of a suspension as follows:
The suspension was prepared as follows: 40% of the final amount of Polysorbat 80 and 40% of the final amount of simethicone were mixed and dissolved and/or dispersed in about 12% of the final amount of purified water and homogenized with Ultra Turrax (30 seconds; 27,000 rpm). Subsequently, 1 g of the form IV of posaconazole, i.e. in its non-micronized form, were suspended or dispersed in this mixture under homogenization by Ultra Turrax (27,000 rpm, 2 minutes). The remaining 60% of Polysorbat 80 and of simethicone and 32% of the final amount of the purified water were added and mixed followed by the addition of sodium benzoate, sodium citrate dihydrate and citric acid monohydrate. After further mixing, xanthan gum was added to the mixture under stirring, followed by a 30 minutes phase of hydratization without mixing. Subsequently, glycerol and liquid glucose as well as titanium dioxide and the remaining portion of 56% of the final amount of purified water were added under mixing with a suitable homogenizer until a uniform suspension was obtained.
25 ml of a similar suspension were prepared analogously using non-micronized crystalline form I of posaconazole which was prepared by the method of example 3 described in U.S. Pat. No. 6,958,337.
Additionally, NOXAFIL® oral suspension (40 mg/ml) as commercially available from Medizone Germany GMBH (US product) was used to determine the particle size distribution of micronized form I of posaconazole which was contained in this known suspension.
The particle size distribution (Malvern) was measured according to the USP 32 (2009) method <429> and EP 6 (2008) method 2.9.31. based on the diffraction of laser by particles using a Mastersizer 2000S liquid dispersion system. The particle size measurement was started after ultrasonic treatment of the sample for 5 min.

[3] = Dissolution of suspensions, USP 32 method <711>, apparatus II (Paddle); format: physicochemical; details: 25 rpm, 0.3% SLS aqueous solution
Procedure: The liquid suspensions containing non-micronized crystalline form IV or non-micronized crystalline form I as well as the NOXAFIL® oral suspension containing micronized crystalline form I described in Example 8 were tested for their dissolution behaviour.
Dissolution was tested according to USP 32 (2009) method <711> (USP apparatus II (Paddle); 25 rpm; dissolution medium: 0.3% SLS aqueous solution). Posaconazole concentrations were determined with an online photometer (UV absorption at 260 nm).
The results are shown in Table 4 below wherein values are the amount of posaconazole dissolved in %, and in more detail in FIG. 6 wherein the amount of posaconazole dissolved in % is plotted versus time in minutes.

[4] = on storage as micronised powder, during manufacture or as formulated in the finished product; cited from earlier work
[5] = Storage stability of the solid form (degradation or polymorphic conversion by HPLC, IR or XRPD); format: physicochemical
Procedure: Crystalline form IV is stable under storage conditions which are typical for pharmaceutical compositions and is thus suitable for the preparation of medicaments. Typical storage conditions are, for example, storage at ambient temperature, such as about 20° C. to about 30° C., for several months (e.g., for at least 5 months, preferably at least 12 months, more preferably at least 24 months) in a closed vial.
In experiments crystalline form IV was stable during storage for 63 days at ambient temperature. Even when stored for 4 weeks at 40° C., crystalline form IV was stable.
In this context, “stable” means that neither degradation nor polymorphic conversion to another polymorphic form of crystalline form IV can be detected, for example by HPLC, IR or XRPD analysis as defined herein.

[6] = Stability of form IV in an aqueous pharmaceutical composition (XRPD); format: physicochemical; details: aqueous pharmaceutical suspension stirred at ambient temperature for 1 week
Procedure: The stability of form IV in an aqueous pharmaceutical composition was investigated. 240 mg form IV were suspended in a 4 ml aqueous suspension consisting of a mixture of 19 mg sodium benzoate, 3 mg citric acid, 19 mg xanthan gum, 60 mg Polysorbat 80, 600 mg glycerine and 2 g liquid glucose. The suspension was stirred at ambient temperature for 1 week.

[7] = Polymorphic stability suspended in water and stirred; format: physicochemical; details: suspended in water and stirred for 1 week at ambient temperature
[8] = Equilibrium solubility method in water; format: physicochemical
Procedure: The solubility of crystalline form IV was determined by the equilibrium solubility method. A saturated solution of form IV, obtained by stirring 250 mg form IV in 6 ml water overnight, was prepared. The sample was filtered through a 0.45 μm membrane filter and the concentration of form IV in the filtrate was measured using a Perkin Elmer Lambda 35 UV/VIS spectrophotometer (λ=260 nm).

[9] = Moisture sorption isotherm (SPS-11); format: physicochemical; details: 90% relative humidity, 25° C.
Procedure: The moisture sorption isotherm was recorded with a SPS-11 moisture sorption analyzer (MD Mess-technik, Ulm, D). The measurement cycle was started at 0% relative humidity (RH), increased in 10% steps up to 90% RH and in a 5% step up to 95% RH. The equilibrium condition for each step was set to a constant mass±0.003% over 49 min. The temperature was 25±0.1° C.
The water content of the obtained crystalline form IV was 2.43%. […] The maximum water content peaks at 3.7% at 90% relative humidity, which corresponds to a water mol ratio of 1.5 (FIG. 4).

[10] = WO 99/18097; cited from earlier work
[11] = cited from earlier work
[12] = listed as crystalline form IV of posaconazole

Specific Surface Area ([1]; listed as Crystalline Form I of posaconazole): 1.5 m^2/g and 1.6 m^2/g
Median particle size (d (0.5)-value) ([2]; listed as Crystalline Form I (non-micronized)): 12.88 μm
amount of posaconazole dissolved ([3]; 3 min, listed as Crystalline Form I non-micronized): 29%
amount of posaconazole dissolved ([3]; 25 min, listed as Crystalline Form I non-micronized): 61%
Structure (SMILES): CC[C@@H]([C@H](C)O)n1ncn(-c2ccc(N3CCN(c4ccc(OC[C@@H]5CO[C@@](Cn6cncn6)(c6ccc(F)cc6F)C5)cc4)CC3)cc2)c1=O [Crystalline Form I, posaconazole]
polymorphic transition [4]: no evidence of polymorphic transition

stability during storage ([5]; 4 weeks at 40° C.): stable
stability during storage ([5]; 63 days at ambient temperature): stable
stability in aqueous suspension (XRPD) [6]: remained stable
Specific Surface Area ([1]; listed as Crystalline Form IV of posaconazole): 15.5 m^2/g and 15.7 m^2/g
Specific Surface Area [1, 12]: 10-25 m^2/g
specific surface area relative to crystalline form I ([1]; larger than form I): about 10 fold
Median particle size (d (0.5)-value) ([2]; listed as Crystalline Form IV (non-micronized)): 0.15 μm
Median particle size (d (0.5)-value) [2, 12]: 0.1-0.2 μm
median particle size relative to micronized form I ([2]; smaller than micronized form I): about 10 fold
median particle size relative to non-micronized form I ([2]; smaller than non-micronized form I): about 90 fold
amount of posaconazole dissolved ([3]; 3 min, listed as Crystalline Form IV non-micronized): 82%
amount of posaconazole dissolved ([3]; 25 min, listed as Crystalline Form IV non-micronized): 100%
solubility ([8]; thermodynamic from solid, saturated solution in water, stirred overnight, 0.45 μm filtered, UV 260 nm): 2.1 µg/mL (≈ 3 µM)
solubility compared with form I ([8]; water, equilibrium solubility): more than two times higher
maximum water content (moisture sorption) [9]: 3.7%
water mol ratio at maximum water content [9]: 1.5
Structure (SMILES): CC[C@@H]([C@H](C)O)n1ncn(-c2ccc(N3CCN(c4ccc(OC[C@@H]5CO[C@@](Cn6cncn6)(c6ccc(F)cc6F)C5)cc4)CC3)cc2)c1=O [Crystalline Form IV, 2,5-anhydro-1,3,4-trideoxy-2-C-(2,4-difluorophenyl)-4-[[4-[4-[4-[1-[(1S,2S)-1-ethyl-2-hydroxypropyl]-1,5-dihydro-5-oxo-4H-1,2,4-triazol-4-yl]phenyl]-1-piperazinyl]phenoxy]methyl]-1-(1H-1,2,4-triazol-1-yl)-D-threo-pentitol]
transformation into another form [7]: not susceptible to transformation into another form

Structure (SMILES): CC[C@@H]([C@H](C)O)n1ncn(-c2ccc(N3CCN(c4ccc(OC[C@@H]5CO[C@@](Cn6cncn6)(c6ccc(F)cc6F)C5)cc4)CC3)cc2)c1=O [Crystalline form II, posaconazole]
stability under the conditions investigated [10]: unstable

Structure (SMILES): CC[C@@H]([C@H](C)O)n1ncn(-c2ccc(N3CCN(c4ccc(OC[C@@H]5CO[C@@](Cn6cncn6)(c6ccc(F)cc6F)C5)cc4)CC3)cc2)c1=O [posaconazole, 2,5-anhydro-1,3,4-trideoxy-2-C-(2,4-difluorophenyl)-4-[[4-[4-[4-[1-[(1S,2S)-1-ethyl-2-hydroxypropyl]-1,5-dihydro-5-oxo-4H-1,2,4-triazol-4-yl]phenyl]-1-piperazinyl]phenoxy]methyl]-1-(1H-1,2,4-triazol-1-yl)-D-threo-pentitol]
log P [11]: > 3
